The values that follow come from ChEMBL document CHEMBL1143556 (J Med Chem, 2005).

The target in experiment [1] is T1, Peroxisome proliferator-activated receptor alpha (Homo sapiens, UniProt Q07869).
T1 sequence (Q07869 whole entry): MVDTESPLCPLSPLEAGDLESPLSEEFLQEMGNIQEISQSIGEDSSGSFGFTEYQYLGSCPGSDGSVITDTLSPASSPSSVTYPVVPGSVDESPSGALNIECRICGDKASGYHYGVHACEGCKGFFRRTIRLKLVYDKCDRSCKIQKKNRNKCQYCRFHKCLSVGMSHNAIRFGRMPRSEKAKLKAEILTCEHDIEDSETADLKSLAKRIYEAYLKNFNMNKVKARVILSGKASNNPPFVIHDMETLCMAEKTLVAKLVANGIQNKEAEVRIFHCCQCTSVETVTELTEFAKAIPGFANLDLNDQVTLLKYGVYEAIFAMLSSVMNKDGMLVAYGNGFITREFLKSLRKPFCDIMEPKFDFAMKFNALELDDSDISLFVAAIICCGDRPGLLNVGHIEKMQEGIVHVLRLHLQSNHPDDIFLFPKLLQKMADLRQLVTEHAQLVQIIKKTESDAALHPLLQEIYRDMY
Description: Effective concentration against human Peroxisome proliferator activated receptor alpha.

The target in experiment [2] is T2, Peroxisome proliferator-activated receptor gamma (Homo sapiens, UniProt P37231).
T2 sequence (P37231 whole entry): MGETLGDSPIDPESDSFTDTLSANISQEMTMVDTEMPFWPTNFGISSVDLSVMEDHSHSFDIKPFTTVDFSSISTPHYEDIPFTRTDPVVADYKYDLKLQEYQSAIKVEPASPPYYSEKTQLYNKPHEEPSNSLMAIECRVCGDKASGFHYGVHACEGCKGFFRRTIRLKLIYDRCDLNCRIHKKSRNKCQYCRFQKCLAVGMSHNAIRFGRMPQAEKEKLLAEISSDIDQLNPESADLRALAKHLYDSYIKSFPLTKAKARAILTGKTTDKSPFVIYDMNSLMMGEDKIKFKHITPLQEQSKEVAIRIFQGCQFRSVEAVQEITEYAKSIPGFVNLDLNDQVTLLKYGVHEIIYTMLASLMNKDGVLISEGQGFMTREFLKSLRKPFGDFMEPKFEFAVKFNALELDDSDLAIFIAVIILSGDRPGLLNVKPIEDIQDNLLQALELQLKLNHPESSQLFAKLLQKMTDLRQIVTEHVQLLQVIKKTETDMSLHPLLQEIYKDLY
Description: Inhibition of human Peroxisome proliferator activated receptor gamma.

In experiment [3] the target is T1, Peroxisome proliferator-activated receptor alpha. Description: Inhibition of human Peroxisome proliferator activated receptor alpha.
Experiment [4] concerns the target T2, Peroxisome proliferator-activated receptor gamma.
Experiment [5] relates to Rattus norvegicus. Briefly: Half life was measured in male SD rat after 5 mg/kg intra arterial dosage; n=3.
Experiment [6] relates to Rattus norvegicus. Description: Clearance was measured in male SD rat after 5 mg/kg intra arterial dosage; n=3.
The test system of experiment [7] is Rattus norvegicus. Briefly: Time to maximum concentration was measured in male SD rat after 10 mg/kg oral dosage; n=3.

Each structure is given as a SMILES string.

Broadly, the EC50 is the concentration at which the effect is half-maximal. Low values mean a more potent agent, high ones a less potent agent. In general, IC50 refers to the concentration that inhibits the measured activity by half. Read a low IC50 as greater potency in that assay. Consider `CCCCCCCN(CCc1ccc(O[C@@](C)(CC)C(=O)O)cc1)C(=O)Nc1ccc(F)cc1F`, for which the EC50 is less than 20 nM in experiment [1] and 425 nM in experiment [4]. Also, the figures for the half-maximal inhibitory concentration (IC50) in experiment [2] and in experiment [3] were 316 nM and 538 nM, respectively.
The matching figures for `Cc1oc(-c2ccccc2)nc1CCOc1ccc(CN(CC(=O)O)Cc2ccccc2)cc1`: 20 nM, 1500 nM, 4800 nM and 1400 nM.
As for `CC(C)(Oc1ccc(C(=O)c2ccc(Cl)cc2)cc1)C(=O)O` [FENOFIBRIC ACID], the concentration for a half-maximal effect (EC50) in experiment [1] was more than 10000 nM. The molecule also registered a half-maximal inhibitory concentration (IC50) in experiment [3] of more than 10000 nM.
The molecule `COc1ccc(OC(=O)N(CC(=O)O)Cc2ccc(OCCc3nc(-c4ccccc4)oc3C)cc2)cc1` [MURAGLITAZAR] yielded a half-maximal effective concentration (EC50) in experiment [1] of 320 nM. Moreover, the T1/2 in the experiment on Rattus norvegicus [5] came to 7.3 h. This molecule returned a half-inhibitory concentration (IC50) in experiment [3] of 250 nM. The same molecule gave a CL (mL.min-1.kg-1) with Rattus norvegicus [6] of 3. In addition, the Tmax in the experiment with Rattus norvegicus [7] was determined as 24 min.
